According to US8354387B2, “Methods and compositions for delivering siRNA into mammalian cells” (Centre National de la Recherche Scientifique, priority 2004, dated 2013):

Columns and labels:
[1] = test system: human breast cancer cell line MCF-7; assay: Proliferation of MCF-7 cancer cells; format: cell-based; details: controls, MCF-7, 8 days
Protocol: FIG. 7: Cyclin-B1 siRNA inhibits tumour growth. Exponentially MCF-7 growing cells (1-3 10^4) were incubated with different concentrations (10 nM, 50 nM, 100 nM) of siRNA or mismatched siRNA complexed or not with MPG (molecular ratio 1:10) and cell proliferation was assessed 8 days post incubation.
Cell culture, MPG mediated transfection. Adherent fibroblastic Hs68 (ATCC no CRL-1635), 293 (ATCC no CRL-1573), HeLa (ATCC no CCL-2) and MCF-7 (ATCC no HTB-22) cell lines were cultured in Dulbecco's Modified Eagle's Medium supplemented with […] glutamine, 1% antibiotics (streptomycin 10,000 μg/ml, penicillin, 10,000 IU/ml) and 10% (w/v) fetal calf serum (FCS), at 37° C. in a humidified atmosphere containing 5% CO2. For MPG-mediated delivery of siRNA, complexes were formed by incubation of different concentrations of siRNA from 10 nM to 1 μM with MPG at a molecular ratio of 1:10, respectively, in 500 μl of DMEM for 30 min at 37° C. Cells grown to 40 to 60% confluence were then overlaid with preformed complexes. After 30 min incubation at 37° C., 1 ml of fresh DMEM supplemented with 10% fetal calf serum was added directly to the cells, without removing the overlay of siRNA/MPG complexes, and cells were returned to the incubator. Different concentrations of siRNA or phosphorothioate oligonucleotide were transfected with cationic lipids, Lipofectamine or Oligofectamine (Invitrogen, Carlsbad, US), according to the guidelines of the manufacturer.
As delivery of siRNA directed against cyclin B1 promotes efficient downregulation of both cyclin B1 mRNA and protein levels, it was looked for to what extent this might affect proliferation of cancer cells. The effect of siRNA was investigated on the human breast cancer cell line MCF-7. Exponentially growing cells (1-3 10^4) were incubated with different concentrations (10 nM, 50 nM, 100 nM) of siRNA or mismatched siRNA complexed or not with MPG (molecular ratio 1:10) and cell proliferation was assessed 8 days post incubation (FIG. 7).

[2] = test system: 15PC3 cells or A549 cells (human bronchoalveolar carcinoma) tumors; assay: Tumour growth after intratumoral injection in Swiss nude mice; format: in vivo; details: 20 days after injection
Protocol: FIG. 8: Cyclin-B1 siRNA inhibits tumour growth. Mice were infected subcutaneously with 15PC3 cells (ATCC no CRL-1435). One week later, MPG/siRNA complexes were injected directly into the tumour, at different concentrations (1 μg, 5 μg, 10 μg, in 50 μl of PBS).
Cyclin B1 siRNA inhibits tumor growth: In vivo injections and tumors analysis. Five weeks old female Swiss nude nice were injected subcutaneously with 2×10^7 15PC3 cells or A549 cells (n^o ATCC CCL-185) (human bronchoalveolar carcinoma). When tumors reached a mean volume of 50 to 100 mm^3, (a week later), mice were injected intra-tumorally or sub-tumorally with 50 μl of PBS containing anti cyclin B1 siRNA (1, 5, 10 μg) or scrambled siRNA (50 μg) complexed with MPG or siRNA (50 μg). 50 μl of PBS was used as a control. Tumor volume was measured with calipers every two days. A second injection was performed after 10 days and tumor size was measured after 20 days.
As delivery of siRNA directed against cyclin B1 blocked proliferation of cancer cells, the role of siRNA/MPG formulation to block tumor growth in vivo. The effect of the cyclin B1 siRNA was investigated on tumor animal model (FIG. 8), using Swiss nude nice, injected subcutaneously with 2×10^7 15PC3 cells or A549 cells (human bronchoalveolar carcinoma). Different MPG/siRNA complexed were injected intratumorally and monitoring tumor volumes followed the effect of siRNA.

[3] = test system: mammalian cells; details: single- and double-stranded oligonucleotides; cited from earlier work

Sequence: GALFLGFLGAAGSTMGAWSQPKKKRKV (carrier peptide) [MPG, bipartite amphipathic peptide derived from fusion peptide domain of HIV-1 gp41 and NLS of SV40 large T antigen]
- effect on cell proliferation [1]: neither free siRNA or scrambled molecules, or the peptide carrier alone affected cell proliferation
- tumor size increase [2]: 2.5 fold
- time to deliver oligonucleotides into mammalian cells [3]: < 1 h
